Tests used:
[1] = oral toxicity in mice (LD50, mortality over 14 days); conditions: mouse, in vivo, po
Experimental: (§1) The toxicity of the products to be studied was investigated by the oral administration, using an esophageal tube, of each of the said products to male mice with a body weight of 18 to 22 g, divided into groups each containing 10 to 20 animals. The mortality was recorded over a 14-day period.

male mice [2] = experiment: as above; conditions: per os, male mice; repeated in Table IV; 20160 min
Experimental: as §1

[3] = test system: convulsions induced by pentetrazole; experiment: animal or person
Source text: (§2) The anticonvulsant properties were investigated on male mice, thirty minutes after the oral administration of the substances to be studied, by the induction of convulsive seizures.

[4] = test system: convulsions induced by supra maximal electroshock (MCE); experiment: animal or person
Experimental: as §2
These seizures are caused either by the intraperitoneal injection of pentetrazole (125 mg/kg) or by electrical stimulation of the cornea (supra maximal electroshock, abbreviated to MCE).

in vivo = format: in vivo; conditions: mouse, in vivo, po; per os, male mice, Rota-rod 30 min after administration; dose causing 50% of animals to fall; read-out: TD50 (50% neurotoxic dose)
Source text: (§3) The animals (divided into groups each containing ten male mice per dose and per product) are installed on the rod and their fall is observed over the next two minutes.

male mice [5] = experiment: in vivo; format: in vivo; conditions: TD50 per os/ED50 per os
Source text: as §3

CCCC(CCC)C(=O)[O-].[Na+] [VALP, sodium valproate, reference compound]
LD50 at 336 h [1]: 977 mg/kg
LD50 (male mice [2]): 977 mg/kg
Therapeutic index PTZ (LD50/ED50) ([3]; LD50 per os/ED50 per os, PTZ convulsions): 4.0
ED50 ([3]; Mus musculus, po, 0.5 h, read-out: ED50 in respect of convulsions induced by PTZ): 244 mg/kg
Therapeutic index MCE (LD50/ED50) ([4]; LD50 per os/ED50 per os, MCE convulsions): 4.0
ED50 ([4]; Mus musculus, po, 0.5 h, read-out: ED50 in respect of convulsions induced by MCE): 242 mg/kg
TD50 at 0.5 h (in vivo): 670 mg/kg
Protection index MCE (TD50/ED50) (male mice [5]; MCE convulsions): 2.8
Protection index PTZ (TD50/ED50) (male mice [5]; PTZ convulsions): 2.7

Source: US4880807A, “Nicotinoylpiperazines useful for treatment of convulsions” (Institut De Recherches Chimiques et Biologiques Appliquees …, priority 1987, dated 1989)
